The structures appear in SMILES notation. Where two headings read alike, the source gives them in different places.

The values that follow come from paper PMC5316403, “A multicenter assessment of single-cell models aligned to standard measures of cell health for prediction of acute hepatotoxicity” (Archives of Toxicology, 2016).

One data set has as its system man. The following applies: cited from earlier work.
On the set-up of data set [1]: method as in references provided in Table 4. The note with it: therapeutic concentrations, used to calculate EC50/Cmax; ref references provided in Table 4; cited from earlier work.
Data set [2] concerns cryopreserved HepaRG cells. Nature of the data set: Cytotoxicity (intracellular ATP, CellTiter Glo) in cryopreserved HepaRG cells. It is filed as cell-based, human. The following applies: 24 or 72 h, all test sites, up to highest dose.
Experimental: Differentiated cryopreserved HepaRG cells were purchased from Biopredic International (Saint-Gregoire, France). The cells were thawed in Thawing/Plating Medium [Williams’ Medium E supplemented with 1 % penicillin/streptomycin, 1 % L-Glutamine, 10 % FCS and 12.5 % ADD670 cocktail (BioPredic International, Saint-Gregoire, France; proprietary medium composition)], centrifuged (500×g; 5 min; room temperature) and then resuspended in fresh Thawing/Plating Medium. After the addition of the ADD670 cocktail, the final DMSO concentration in the Thawing/Plating Medium was 0.5 %. Cell number and viability were determined by the trypan blue exclusion method, and the cells were plated at a seeding density of 72,000 cells/well in white/clear bottom 96-well plates (Beckton Dickinson, New Jersey, USA). […]
(§1) The CellTiter Glo assay kit (Promega, Madison, WI, USA) was used to determine the ATP content in the cells after exposure to the thirteen compounds for 24 or 72 h. […] The supernatant samples were transferred into opaque flat-bottomed 96-well plates (Greiner-Bio-One, Frickenhausen, Germany) and the luminescence measured.
Cell viability was determined as the percentage of the fluorescent resorufin after incubation with resazurin in the treated cells compared with vehicle control or the percentage of ATP detected in the treated cells compared with vehicle control. […]
A further data set has as its system HepG2/ECACC cells. Nature of the data set: Cytotoxicity (intracellular ATP, CellTiter Glo) in HepG2/ECACC cells. It is filed as cell-based, human. The note with it: 24 or 72 h, all test sites, up to highest dose.
In a further data set the test system is Upcyte hepatocytes. Nature of the data set: Cytotoxicity (intracellular ATP, CellTiter Glo) in Upcyte hepatocytes. It is filed as cell-based, human. The note with it: Upcyte cells, 24 or 72 h, all test sites, up to highest dose.
Data set [3] deals with primary human hepatocytes (PHH). Nature of the data set: Cytotoxicity (intracellular ATP, CellTiter Glo) in primary human hepatocytes. The note with it: cryopreserved PHH, 24 or 72 h, all test sites, up to highest dose. It is filed as cell-based.
Experimental: Cryopreserved PHH from five donors were provided by KaLy-Cell (Plobsheim, France). […] Cell number and viability were determined by the trypan blue exclusion method, and the cells were plated at a seeding density of 70,000 cells/well of a KaLy-Cell home-coated type I rat tail collagen (10 µg/well) 96-well plate. […]
as §1
(§2) Cell viability was determined as the percentage of the fluorescent resorufin after incubation with resazurin in the treated cells compared with vehicle control or the percentage of ATP detected in the treated cells compared with vehicle control. Individual EC50 values from all participants were calculated using GraphPad Prism 6 (version 6.03) at one partner site. […]
The mark [4] stands for this setting: reported to cause hepatotoxicity in man or not, ref references in Table 4.

Experimental for HepG2/ECACC cells: A specific clone of HepG2 cells was purchased from the European Collection of Cell Cultures (ECACC). The cells were cultivated and low passage frozen stocks were generated and banked by one MIP-DILI partner designated as the cell bank. The cells were distributed to the relevant MIP-DILI partners. […] Cell number and viability were determined using the trypan blue exclusion method, and the cells were plated at a seeding density of 20,000 cells/well in BD Biocoat Collagen I 96-well plates (Beckton Dickinson, New Jersey, USA). […]
as §1, §2
Experimental for Upcyte hepatocytes: The cells were then centrifuged (90×g; 5 min; room temperature) and resuspended in fresh Upcyte High Performance Medium (Medicyte, Heidelberg, Germany). Cell number and viability were determined via the trypan blue exclusion method, and the cells were seeded at 18,750 cells/well in white/clear bottom 96-well plates (Beckton Dickinson, New Jersey, USA). After seeding, the cells were incubated for 72 h (37 °C; 5 % CO2; 95 % air) without additional medium change prior to compound treatment.
The compound concentrations used were chosen as representative for each compound when conducting an in vitro safety assessment study. […] Stock aliquots were stored at −20 °C and only thawed once. […]
as §1, §2

Regarding `COc1ccccc1Oc1c(NS(=O)(=O)c2ccc(C(C)(C)C)cc2)nc(-c2ncccn2)nc1OCCO` [Bosentan], the Hepatotoxic/non-hepatotoxic result in the data set with man (setting [4]) is “Hepatotoxic”.

Take `O=C1CC2(CCCC2)CC(=O)N1CCCCN1CCN(c2ncccn2)CC1` [Buspirone]: in the data set on man (setting [4]), the Hepatotoxic/non-hepatotoxic entry was “Non-hepatotoxic”.

With `O=C(O)Cc1ccccc1Nc1c(Cl)cccc1Cl` [Diclofenac], the Hepatotoxic/non-hepatotoxic result with man (in vivo) was “Hepatotoxic”.

Regarding `CCN(CC)C(=O)/C(C#N)=C/c1cc(O)c(O)c([N+](=O)[O-])c1` [Entacapone], in the data set on man (setting [4]), the Hepatotoxic/non-hepatotoxic result is “Non-hepatotoxic”. In addition, the Cmax in data set [1] is 1500 nM.

Turning to `CN(C)C(=N)N=C(N)N` [Metformin], the Cmax in data set [1] is 7740 nM.

Take `CCc1nn(CCCN2CCN(c3cccc(Cl)c3)CC2)c(=O)n1CCOc1ccccc1` [Nefazodone]: the Hepatotoxic/non-hepatotoxic entry in the data set on man (setting [4]) is reported as “Hepatotoxic”. Further, the Cmax in data set [1] was 859 nM.

With `CC(=O)Nc1ccc(O)cc1` [Paracetamol], the Hepatotoxic/non-hepatotoxic result with man (setting [4]) is reported as “Hepatotoxic”.

In the case of `C1CCC(C(CC2CCCCN2)C2CCCCC2)CC1` (stereo not drawn) [Perhexiline], the Hepatotoxic/non-hepatotoxic result with man (setting [4]) was “Hepatotoxic”. For the same compound, the Cmax in data set [1] was 1520 nM.

Regarding `CCc1ccc(CCOc2ccc(CC3SC(=O)NC3=O)cc2)nc1` (stereo not drawn) [Pioglitazone], the Hepatotoxic/non-hepatotoxic result with man (setting [4]) is on record as “Non-hepatotoxic”. Further, in data set [1], the highest concentration (Cmax) was 2670 nM.

Consider `Cc1ccc(C(=O)c2cc(O)c(O)c([N+](=O)[O-])c2)cc1` [Tolcapone], for which the Hepatotoxic/non-hepatotoxic result with man (setting [4]) is “Hepatotoxic”. Further, the Cmax in data set [1] is 27800 nM.

Consider `Cc1c(C)c2c(c(C)c1O)CCC(C)(COc1ccc(CC3SC(=O)NC3=O)cc1)O2` (stereo not drawn) [Troglitazone], for which the Hepatotoxic/non-hepatotoxic entry in the data set on man (setting [4]) is “Hepatotoxic”. In addition, in data set [1], the Cmax is 6390 nM.

As for `CCOC(=O)CN[C@@H](C(=O)N1CC[C@H]1C(=O)NCc1ccc(/C(N)=N\O)cc1)C1CCCCC1` [Ximelagatran], the “toxicity (cell viability)” value (in data set [2]; with HepG2/ECACC cells; with Upcyte hepatocytes; in data set [3]) was “no toxicity was detected even at the highest doses” each time.
